In US10125100B2, “Kinase inhibitors” (Respivert Limited, priority 2014, dated 2018):

Test system: Jurkat cells
Experiment: (r) Cell cytotoxicity assay
Type: cell-based, human
Settings: 24 hours
Description: 1×10^5 Jurkat cells (immortalised human T lymphocytes) are added to the appropriate number of wells of a 96 well plate in 100 μL of media (RPMI supplemented with 10% foetal bovine serum). 1 μL of DMSO control (final concentration 1.0% v/v) or test compound (final concentration 20, 5 or 1 μg/mL) is added to the wells and incubated at 37° C., 5% CO2. After 24 hours, the plate is centrifuged at 1200 rpm for 3 minutes and the supernatant discarded. Cells are then resuspended in 150 μL (final concentration 7.5 μg/mL) of propidium iodide (PI) in PBS and incubated at 37° C., 5% CO2 for 15 minutes. After 15 minutes, cells are analysed by flow cytometry (BD accuri) using the FL3 window. The % viability is calculated as the % of cells that are PI negative in the test wells normalised to the DMSO control.

Compound	% Viability at 1 μg/mL [%]	% Viability at 5 μg/mL [%]	% Viability at 20 μg/mL [%]
COc1cc(Nc2cc(Oc3ccc(NC(=O)Nc4cc(C(C)(C)C)cc(NS(C)(=O)=O)c4OC)c4ccccc34)ccn2)ccc1C(=O)NCCN1CCN(C(=O)CC[C@H](N)C(=O)O)CC1 [17(cl), (S)-2-Amino-5-(4-(2-(4-((4-((4-(3-(5-(tert-butyl)-2-methoxy-3-(methylsulfonamido)-phenyl)ureido)naphthalen-1-yl)oxy)pyridin-2-yl)amino)-2-methoxybenzamido)ethyl)piperazin-1-yl)-5-oxopentanoic acid]	93.6	94.0	93.7
COc1cc(Nc2cc(Oc3ccc(NC(=O)Nc4cc(C(C)(C)C)cc(NS(C)(=O)=O)c4OC)c4ccccc34)ccn2)ccc1C(=O)NCCC1CCNCC1 [Example 27, 4-((4-((4-(3-(5-(tert-Butyl)-2-methoxy-3-(methylsulfonamido)phenyl)ureido)naphthalen-1-yl)oxy)pyridin-2-yl)amino)-2-methoxy-N-(2-(piperidin-4-yl)ethyl)benzamide]	101.2	94.9	1.7
COc1cc(Nc2cc(Oc3ccc(NC(=O)Nc4cc(C(C)(C)C)cc(C(=O)NCCO)c4OC)c4ccccc34)ccn2)ccc1C(=O)NCCN1CC[S+]([O-])CC1 [Example 32, 5-(tert-Butyl)-N-(2-hydroxyethyl)-2-methoxy-3-(3-(4-((2-((3-methoxy-4-((2-(1-oxidothiomorpholino)ethyl)carbamoyl)phenyl)amino)pyridin-4-yl)oxy)naphthalen-1-yl)ureido)benzamide]	95.4	43.1	2.5
COc1cc(Nc2cc(Oc3ccc(NC(=O)Nc4cc(C(C)(C)C)cc(NS(C)(=O)=O)c4OC)c4ccccc34)ccn2)ccc1C(=O)NC(C)CN1CCN(C)CC1 (stereo not drawn) [17(bl), 4-((4-((4-(3-(5-(tert-Butyl)-2-methoxy-3-(methylsulfonamido)phenyl)ureido)naphthalen-1-yl)oxy)pyridin-2-yl)amino)-2-methoxy-N-(1-(4-methylpiperazin-1-yl)propan-2-yl)benzamide]	103.6	0.2	0.5
COc1cc(Nc2cc(Oc3ccc(NC(=O)Nc4cc(C(C)(C)C)cc(NS(C)(=O)=O)c4OC)c4ccccc34)ccn2)cc(OC)c1C(=O)N1CCN(CCN(C)C)CC1 [17(cg), N-(5-(tert-Butyl)-3-(3-(4-((2-((4-(4-(2-(dimethylamino)ethyl)piperazine-1-carbonyl)-3,5-dimethoxyphenyl)amino)pyridin-4-yl)oxy)naphthalen-1-yl)ureido)-2-methoxyphenyl)methane sulfonamide]	96.1	95.3	92.3
COc1cc(Nc2cc(Oc3ccc(NC(=O)Nc4cc(C(C)(C)C)cc(NS(C)(=O)=O)c4OC)c4ccccc34)ccn2)ccc1S(=O)(=O)N(C)CCCN1CCN(C)CC1 [Example 25, 4-((4-((4-(3-(5-(tert-Butyl)-2-methoxy-3-(methylsulfonamido)phenyl)ureido)naphthalen-1-yl)oxy)pyridin-2-yl)amino)-2-methoxy-N-methyl-N-(3-(4-methylpiperazin-1-yl)propyl)benzenesulfonamide]	91.8	78.9	0.7
COc1cc(Nc2cc(Oc3ccc(NC(=O)Nc4cc(C(C)(C)C)cc(NS(C)(=O)=O)c4OC)c4ccccc34)ccn2)cc(OC)c1C(=O)NCC1CCN(C)CC1 [17(ca), 4-((4-((4-(3-(5-(tert-Butyl)-2-methoxy-3-(methylsulfonamido)phenyl)ureido)naphthalen-1-yl)oxy)pyridin-2-yl)amino)-2,6-dimethoxy-N-((1-methylpiperidin-4-yl)methyl)benzamide]	92.6	94.0	75.8
COc1cc(Nc2cc(Oc3ccc(NC(=O)Nc4cc(C(C)(C)C)cc(NS(C)(=O)=O)c4OC)c4ccccc34)ccn2)ccc1C(=O)NCCC(=O)N1C[C@H](O)[C@@H](O)[C@H](O)[C@H]1CO [17(cf), 4-((4-((4-(3-(5-(tert-Butyl)-2-methoxy-3-(methylsulfonamido)phenyl)ureido)naphthalen-1-yl)oxy)pyridin-2-yl)amino)-2-methoxy-N-(3-oxo-3-((2R,3R,4R,5S)-3,4,5-trihydroxy-2-(hydroxymethyl)piperidin-1-yl)propyl)benzamide]	96.7	96.7	96.8
COc1c(NC(=O)Nc2ccc(Oc3ccnc(Nc4ccc(C(=O)NCCCN5CCOCC5)c(O)c4)c3)c3ccccc23)cc(C(C)(C)C)cc1NS(C)(=O)=O [Example 29, 4-((4-((4-(3-(5-(tert-Butyl)-2-methoxy-3-(methylsulfonamido)phenyl)ureido)naphthalen-1-yl)oxy)pyridin-2-yl)amino)-2-hydroxy-N-(3-morpholinopropyl)benzamide]	101.2	46.6	2.0
COc1cc(Nc2cc(Oc3ccc(NC(=O)Nc4cc(C(C)(C)C)cc(NS(C)(=O)=O)c4OC)c4ccccc34)ccn2)ccc1C(=O)NCC(=O)O [17(ar), 2-(4-((4-((4-(3-(5-(tert-Butyl)-2-methoxy-3-(methylsulfonamido)phenyl)ureido)naphthalen-1-yl)oxy)pyridin-2-yl)amino)-2-methoxybenzamido)acetic acid]	96.1	96.2	95.3
COc1cc(Nc2cc(Oc3ccc(NC(=O)Nc4cc(C(C)(C)C)cc(NS(C)(=O)=O)c4OC)c4ccccc34)ccn2)cc(OC)c1C(=O)NC1CCN(C)CC1 [17(bz), 4-((4-((4-(3-(5-(tert-Butyl)-2-methoxy-3-(methylsulfonamido)phenyl)ureido)naphthalen-1-yl)oxy)pyridin-2-yl)amino)-2,6-dimethoxy-N-(1-methylpiperidin-4-yl)benzamide]	93.6	92.7	64.1
COc1cc(Nc2cc(Oc3ccc(NC(=O)Nc4cc(C(C)(C)C)cc(NS(C)(=O)=O)c4OC)c4ccccc34)ccn2)ccc1C(=O)NCCCC[C@H](N)C(=O)O [17(bu), (S)-2-Amino-6-(4-((4-((4-(3-(5-(tert-butyl)-2-methoxy-3-(methylsulfonamido)phenyl)-ureido)naphthalen-1-yl)oxy)pyridin-2-yl)amino)-2-methoxybenzamido)hexanoic acid]	92.6	92.6	91.7
COc1cc(Nc2cc(Oc3ccc(NC(=O)Nc4cc(C(C)(C)C)cc(NS(C)(=O)=O)c4OC)c4ccccc34)ccn2)cc(OC)c1C(=O)NCCCN1CCN(C)CC1 [17(au), 4-((4-((4-(3-(5-(tert-Butyl)-2-methoxy-3-(methylsulfonamido)phenyl)ureido)naphthalen-1-yl)oxy)pyridin-2-yl)amino)-2,6-dimethoxy-N-(3-(4-methylpiperazin-1-yl)propyl)benzamide]	94.0	91.8	80.6
COc1cc(Nc2cc(Oc3ccc(NC(=O)Nc4cc(C(C)(C)C)cc(NS(C)(=O)=O)c4OC)c4ccccc34)ccn2)cc(OC)c1C(=O)NCCCN1CCOCC1 [Example 23, 4-((4-((4-(3-(5-(tert-Butyl)-2-methoxy-3-(methylsulfonamido)phenyl)ureido)naphthalen-1-yl)oxy)pyridin-2-yl)amino)-2,6-dimethoxy-N-(3-morpholinopropyl)benzamide]	92.4	88.9	89.8
COc1cc(Nc2cc(Oc3ccc(NC(=O)Nc4cc(C(C)(C)C)cc(NS(C)(=O)=O)c4OC)c4ccccc34)ccn2)ccc1C(=O)NCCN1CCN(C(=O)CCC(=O)O)CC1 [17(ck), 4-(4-(2-(4-((4-((4-(3-(5-(tert-Butyl)-2-methoxy-3-(methylsulfonamido)phenyl)ureido)-naphthalen-1-yl)oxy)pyridin-2-yl)amino)-2-methoxybenzamido)ethyl)piperazin-1-yl)-4-oxobutanoic acid]	96.1	96.1	95.5
CCC(=O)NS(=O)(=O)c1ccc(Nc2nccc(Oc3ccc(NC(=O)Nc4cc(C(C)(C)C)cc(NS(C)(=O)=O)c4OC)c4ccccc34)n2)cc1OC [17(bk), N-((4-((4-((4-(3-(5-(tert-Butyl)-2-methoxy-3-(methylsulfonamido)phenyl)ureido)-naphthalen-1-yl)oxy)pyrimidin-2-yl)amino)-2-methoxyphenyl)sulfonyl)propionamide]	93.0	71.8	65.6
COc1cc(Nc2cc(Oc3ccc(NC(=O)Nc4cc(C(C)(C)C)cc(NS(C)(=O)=O)c4OC)c4ccccc34)ccn2)ccc1C(=O)NC[C@H](O)[C@@H](O)[C@H](O)[C@H](O)CO [17(bw), 4-((4-((4-(3-(5-(tert-Butyl)-2-methoxy-3-(methylsulfonamido)phenyl)ureido)naphthalen-1-yl)oxy)pyridin-2-yl)amino)-2-methoxy-N-((2S,3R,4R,5R)-2,3,4,5,6-pentahydroxyhexyl) benzamide]	94.5	96.2	92.4
